pEC50, pIC50: −log10 of the molar value.
Assays:
[1] = tested on: BV-2 cells; assay: LPS-induced NO production in BV-2 cells; assay type: cell-based; details: mean ± SD of five replicates
Experimental: (§1) NO determination: all compounds were examined for the effect on the release of NO by BV-2 cell lines using the method described previously. All experiments were carried out in five replicates. Microglia Viability Assay: The effects of compounds 1–11 on the viability of BV2 microglia were carried out by MTT assay. BV2 microglia were first seeded at a density of 4000 cells per well for 12 or 24 h using a 96-well plate and then treated with compounds at the concentrations of 1– 100 μmol/L for another 36 h. After that, cells were incubated with MTT (0.5 mg/mL) in a 5% CO2 incubator at 37 °C. Three hours later, the medium was removed, and DMSO (150 μL) was added into each well to dissolve formazan crystals. The […] absorbances were measured at 570 nm using an ELISA microplate reader (Biotek, Winooski, VT, USA).

[2] = tested on: BV2 microglia; assay: Microglia viability assay (MTT); assay type: cell-based; details: BV-2 cells, concentration of 100.0 μmol/L
Experimental: as §1

[3] = target: AChE (Homo sapiens, UniProt P22303); assay: biochemical; details: three replicates; read-out: AChE inhibitory activity IC50
Experimental: All compounds were examined for inhibitory activity against AChE using an optimized colorimetric method described previously. All tests were carried out in three replicates. Donepezil hydrochloride was taken as the positive control.

[4] = DPPH free radical scavenging assay; details: three replicates, read-out: antioxidant activity EC50
Experimental: An optimized colorimetric method described previously was used to evaluate the DPPH free radical scavenging activities of compounds 1–11 [37]. All tests were measured in three replicates. Vitamin C was taken as a positive control.

[5] = tested on: influenza A virus H1N1; set-up: method as in PMID 34052697; details: read-out: anti-influenza A virus H1N1 activity IC50; cited from earlier work

Chain of AChE (P22303 32-614): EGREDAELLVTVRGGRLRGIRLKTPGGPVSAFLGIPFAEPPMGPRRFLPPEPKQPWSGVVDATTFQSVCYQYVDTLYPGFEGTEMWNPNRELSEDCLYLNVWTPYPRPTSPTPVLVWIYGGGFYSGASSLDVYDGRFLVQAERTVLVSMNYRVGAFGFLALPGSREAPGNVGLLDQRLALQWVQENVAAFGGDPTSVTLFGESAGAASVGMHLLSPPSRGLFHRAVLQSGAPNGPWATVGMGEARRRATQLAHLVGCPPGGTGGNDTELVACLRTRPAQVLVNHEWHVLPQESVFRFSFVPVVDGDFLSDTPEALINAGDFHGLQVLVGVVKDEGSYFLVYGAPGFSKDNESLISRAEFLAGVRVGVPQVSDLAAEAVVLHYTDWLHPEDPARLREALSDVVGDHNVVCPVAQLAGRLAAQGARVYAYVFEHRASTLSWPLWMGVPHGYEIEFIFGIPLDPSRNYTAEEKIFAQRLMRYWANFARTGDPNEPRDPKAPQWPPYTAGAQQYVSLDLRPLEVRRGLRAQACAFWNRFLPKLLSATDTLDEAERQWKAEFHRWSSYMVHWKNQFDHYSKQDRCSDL

CC(O)C12CCC(=O)N1c1ccccc1CO2 (centres unmarked) [Compound 2, Nigrosporine B]
NO accumulation induced by LPS ([1]; compound at 20 μmol/L): 47.2 ± 0.2 ng/mL | NO accumulation induced by LPS ([1]; compound at 50 μmol/L): 41.7 ± 0.4 ng/mL | NO accumulation induced by LPS ([1]; compound at 100 μmol/L): 21.8 ± 0.1 ng/mL | cytotoxicity (BV-2 cell viability) [2]: without cytotoxicity | pIC50 [3]: 3.98

CC(=O)Nc1ccccc1O [Compound 5, N-(2-hydroxyphenyl)-acetamide]
pEC50 [4]: 3.78

O=C1O[C@H]([C@@H](O)CO)C(O)=C1O [Vitamin C, reference compound]
pEC50 [4]: 3.84

CC[C@@H](C)C1=C2NC(=O)[C@@](O)(C/C(=C\C=O)OC)C(=O)N2[C@H](C(C)C)C(=O)N1 [deg-pyrasplorine B]
pIC50 [5]: 4.30
